Results: US7972815B2, “Method of producing sugar chain using human G4 polypeptide” (Kyowa Hakko Kirin Co., Ltd., priority 1999, dated 2011)

Molecular target: T1, β1,3-N-acetylglucosaminyl transferase (G4) (Homo sapiens, UniProt Q9Y2A9, R328H)
T1 construct: made in house; host or cells: Sf21 insect cells infected with recombinant baculovirus from pVL1393-F2G4
T1 sequence (Q9Y2A9 38-372 R328H): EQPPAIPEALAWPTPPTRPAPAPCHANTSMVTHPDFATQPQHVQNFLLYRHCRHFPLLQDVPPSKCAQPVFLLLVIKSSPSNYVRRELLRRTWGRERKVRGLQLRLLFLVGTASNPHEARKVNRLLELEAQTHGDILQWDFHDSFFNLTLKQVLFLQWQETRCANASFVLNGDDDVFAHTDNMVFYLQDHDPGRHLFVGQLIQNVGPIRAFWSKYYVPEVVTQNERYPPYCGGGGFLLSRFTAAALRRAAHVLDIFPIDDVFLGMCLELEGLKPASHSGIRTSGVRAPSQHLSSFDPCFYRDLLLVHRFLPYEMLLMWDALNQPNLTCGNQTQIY
Experiment: Substrate specificity of G4 with unlabeled oligosaccharides (HPAE/PAD)
Assay type: biochemical
Conditions: for Relative activity (%): unlabeled substrate, 37° C., 16 hours, activity on LNnT defined as 100%
Protocol: The reaction using the glycosyltransferase was carried out as follows. The reaction was carried out at 37° C. for 16 hours in 40 μl of an assay solution [50 mmol/l MOPS (pH 7.5), 5 mmol/l UDP-GlcNAc (SIGMA), 5 mmol/l MnCl2, […] and 10 μl of the above eluate]. Next, the reaction solution was treated at 100° C. for 5 minutes and then centrifuged at 10,000×g for 20 minutes to obtain the supernatant, and a portion thereof was analyzed using HPAE/PAD (High Performance Anion Pulsed Amperometoric Detection; manufactured by DIONEX). The specific method was carried out in the usual way [Anal. Biochem., 189, 151 (1990), J. Biol. Chem., 273, 433 (1998)].
As substrates, the following unlabeled oligosaccharides were used: lactose (Galβ1-4Glc), N-acetyllactosamine (Galβ1-4GlcNAc, hereinafter referred to as “LacNAc” in some cases), LNnT, LNT and lacto-N-neohexaose (Galβ1-4GlcNACβ1-3Galβ1-4GlcNAcβ1-3Galβ1-4Glc, hereinafter referred to as “LNnH”).
For each substrate, the reaction was carried using the assay solution with or without UDP-GlcNAc (sugar donor), and then HPLC was carried out and peaks appeared only in the assay solution containing UDP-GlcNAc were defined as products.
In identifying the product, coincidence of its elution time with that of a standard sugar chain was used as the index. As the standard sugar chains, GlcNAcβ1-3Galβ1-4Glc, GlcNAcβ1-3Galβ1-4GlcNAc and GlcNAcβ1-3Galβ1-4GlcNAcβ1-3Galβ1-4Glc were used.

| Structure (SMILES) | conversion ratio of the substrate into the product (unlabeled LNnT as substrate) | Relative activity (%) |
| --- | --- | --- |
| CC(=O)N[C@H]1[C@H](O[C@H]2[C@@H](O)[C@@H](CO)O[C@@H](O[C@H]3[C@H](O)[C@@H](O)C(O)O[C@@H]3CO)[C@@H]2O)O[C@H](CO)[C@@H](O[C@@H]2O[C@H](CO)[C@H](O)[C@H](O)[C@H]2O)[C@@H]1O (mixture of isomers) [LNnT, lacto-N-neotetraose] | 1.7% | 100% |
| CC(=O)N[C@H]1[C@H](O[C@H]2[C@@H](O)[C@@H](CO)O[C@@H](O[C@H]3[C@H](O)[C@@H](O)C(O)O[C@@H]3CO)[C@@H]2O)O[C@H](CO)[C@@H](O)[C@@H]1O[C@@H]1O[C@H](CO)[C@H](O)[C@H](O)[C@H]1O (stereo partly drawn) [LNT, lacto-N-tetraose] |  | 114% |
